Values joined by “and” are separate entries in the source; they are usually repeats but may differ in a detail not shown here. Identical values can stand only once.
What was measured:
Experiment in all cases: cell-based
hNav1.7 = hNav1.7 (Homo sapiens, UniProt Q15858); details: IonWorks Quattro; read-out: IC50 Nav1.7
hNav1.3 = hNav1.3 (Homo sapiens, UniProt Q9NY46); details: IonWorks Quattro; read-out: IC50 Nav1.3
hNav1.5 = hNav1.5 (Homo sapiens, UniProt Q14524); details: IonWorks Quattro; read-out: IC50 Nav1.5
hNav1.4 = hNav1.4 (Homo sapiens, UniProt P35499); details: for IC50: IonWorks Quattro, read-out: IC50 Nav1.4; for Nav1.4/Nav1.7: ratio of IonWorks Quattro IC50 values
Chain of hNav1.4 (P35499 whole entry): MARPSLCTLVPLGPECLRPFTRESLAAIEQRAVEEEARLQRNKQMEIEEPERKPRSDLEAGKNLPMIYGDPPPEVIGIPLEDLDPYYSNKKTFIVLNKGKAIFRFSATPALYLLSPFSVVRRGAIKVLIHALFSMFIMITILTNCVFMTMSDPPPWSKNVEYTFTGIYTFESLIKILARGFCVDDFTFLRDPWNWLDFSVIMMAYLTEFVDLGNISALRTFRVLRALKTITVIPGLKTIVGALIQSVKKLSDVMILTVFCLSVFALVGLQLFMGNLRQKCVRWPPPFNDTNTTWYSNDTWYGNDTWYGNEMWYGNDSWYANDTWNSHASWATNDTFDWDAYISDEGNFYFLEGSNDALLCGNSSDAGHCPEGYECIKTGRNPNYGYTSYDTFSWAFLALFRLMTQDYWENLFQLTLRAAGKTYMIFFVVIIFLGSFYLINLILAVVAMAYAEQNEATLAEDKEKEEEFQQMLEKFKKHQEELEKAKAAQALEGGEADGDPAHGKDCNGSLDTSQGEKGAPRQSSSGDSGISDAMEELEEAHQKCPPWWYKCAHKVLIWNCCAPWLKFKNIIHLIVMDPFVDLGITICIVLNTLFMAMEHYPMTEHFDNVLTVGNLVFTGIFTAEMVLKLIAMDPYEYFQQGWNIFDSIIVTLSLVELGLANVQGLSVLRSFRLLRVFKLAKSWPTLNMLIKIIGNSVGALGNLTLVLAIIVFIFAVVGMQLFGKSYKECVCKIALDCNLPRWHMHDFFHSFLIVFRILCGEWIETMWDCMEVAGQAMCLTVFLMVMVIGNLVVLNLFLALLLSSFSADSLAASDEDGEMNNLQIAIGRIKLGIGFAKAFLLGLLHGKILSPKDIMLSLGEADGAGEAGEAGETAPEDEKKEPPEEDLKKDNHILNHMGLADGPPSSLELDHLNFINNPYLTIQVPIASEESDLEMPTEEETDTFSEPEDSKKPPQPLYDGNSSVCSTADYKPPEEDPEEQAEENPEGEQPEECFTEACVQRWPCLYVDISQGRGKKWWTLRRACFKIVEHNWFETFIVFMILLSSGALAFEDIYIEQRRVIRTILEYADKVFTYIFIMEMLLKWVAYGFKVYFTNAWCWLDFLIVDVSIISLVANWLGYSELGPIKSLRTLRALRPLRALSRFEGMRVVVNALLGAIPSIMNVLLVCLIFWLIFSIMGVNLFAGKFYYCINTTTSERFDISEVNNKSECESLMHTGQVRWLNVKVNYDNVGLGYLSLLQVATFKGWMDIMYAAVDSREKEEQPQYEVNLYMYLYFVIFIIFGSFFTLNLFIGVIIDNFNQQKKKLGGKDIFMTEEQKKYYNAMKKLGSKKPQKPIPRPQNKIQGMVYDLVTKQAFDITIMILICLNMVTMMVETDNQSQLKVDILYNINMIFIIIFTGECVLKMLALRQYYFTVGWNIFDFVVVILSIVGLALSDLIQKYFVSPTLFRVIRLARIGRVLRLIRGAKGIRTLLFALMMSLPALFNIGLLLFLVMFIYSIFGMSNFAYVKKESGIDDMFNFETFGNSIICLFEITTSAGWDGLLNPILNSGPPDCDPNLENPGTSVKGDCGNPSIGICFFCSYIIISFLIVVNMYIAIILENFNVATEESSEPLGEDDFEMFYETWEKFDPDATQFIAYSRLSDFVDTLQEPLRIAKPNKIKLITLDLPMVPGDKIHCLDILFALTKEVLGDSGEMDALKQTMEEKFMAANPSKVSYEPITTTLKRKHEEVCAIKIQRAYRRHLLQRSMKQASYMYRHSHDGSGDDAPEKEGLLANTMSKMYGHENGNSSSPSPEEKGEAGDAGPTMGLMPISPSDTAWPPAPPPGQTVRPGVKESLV

Chain of hNav1.3 (Q9NY46 whole entry): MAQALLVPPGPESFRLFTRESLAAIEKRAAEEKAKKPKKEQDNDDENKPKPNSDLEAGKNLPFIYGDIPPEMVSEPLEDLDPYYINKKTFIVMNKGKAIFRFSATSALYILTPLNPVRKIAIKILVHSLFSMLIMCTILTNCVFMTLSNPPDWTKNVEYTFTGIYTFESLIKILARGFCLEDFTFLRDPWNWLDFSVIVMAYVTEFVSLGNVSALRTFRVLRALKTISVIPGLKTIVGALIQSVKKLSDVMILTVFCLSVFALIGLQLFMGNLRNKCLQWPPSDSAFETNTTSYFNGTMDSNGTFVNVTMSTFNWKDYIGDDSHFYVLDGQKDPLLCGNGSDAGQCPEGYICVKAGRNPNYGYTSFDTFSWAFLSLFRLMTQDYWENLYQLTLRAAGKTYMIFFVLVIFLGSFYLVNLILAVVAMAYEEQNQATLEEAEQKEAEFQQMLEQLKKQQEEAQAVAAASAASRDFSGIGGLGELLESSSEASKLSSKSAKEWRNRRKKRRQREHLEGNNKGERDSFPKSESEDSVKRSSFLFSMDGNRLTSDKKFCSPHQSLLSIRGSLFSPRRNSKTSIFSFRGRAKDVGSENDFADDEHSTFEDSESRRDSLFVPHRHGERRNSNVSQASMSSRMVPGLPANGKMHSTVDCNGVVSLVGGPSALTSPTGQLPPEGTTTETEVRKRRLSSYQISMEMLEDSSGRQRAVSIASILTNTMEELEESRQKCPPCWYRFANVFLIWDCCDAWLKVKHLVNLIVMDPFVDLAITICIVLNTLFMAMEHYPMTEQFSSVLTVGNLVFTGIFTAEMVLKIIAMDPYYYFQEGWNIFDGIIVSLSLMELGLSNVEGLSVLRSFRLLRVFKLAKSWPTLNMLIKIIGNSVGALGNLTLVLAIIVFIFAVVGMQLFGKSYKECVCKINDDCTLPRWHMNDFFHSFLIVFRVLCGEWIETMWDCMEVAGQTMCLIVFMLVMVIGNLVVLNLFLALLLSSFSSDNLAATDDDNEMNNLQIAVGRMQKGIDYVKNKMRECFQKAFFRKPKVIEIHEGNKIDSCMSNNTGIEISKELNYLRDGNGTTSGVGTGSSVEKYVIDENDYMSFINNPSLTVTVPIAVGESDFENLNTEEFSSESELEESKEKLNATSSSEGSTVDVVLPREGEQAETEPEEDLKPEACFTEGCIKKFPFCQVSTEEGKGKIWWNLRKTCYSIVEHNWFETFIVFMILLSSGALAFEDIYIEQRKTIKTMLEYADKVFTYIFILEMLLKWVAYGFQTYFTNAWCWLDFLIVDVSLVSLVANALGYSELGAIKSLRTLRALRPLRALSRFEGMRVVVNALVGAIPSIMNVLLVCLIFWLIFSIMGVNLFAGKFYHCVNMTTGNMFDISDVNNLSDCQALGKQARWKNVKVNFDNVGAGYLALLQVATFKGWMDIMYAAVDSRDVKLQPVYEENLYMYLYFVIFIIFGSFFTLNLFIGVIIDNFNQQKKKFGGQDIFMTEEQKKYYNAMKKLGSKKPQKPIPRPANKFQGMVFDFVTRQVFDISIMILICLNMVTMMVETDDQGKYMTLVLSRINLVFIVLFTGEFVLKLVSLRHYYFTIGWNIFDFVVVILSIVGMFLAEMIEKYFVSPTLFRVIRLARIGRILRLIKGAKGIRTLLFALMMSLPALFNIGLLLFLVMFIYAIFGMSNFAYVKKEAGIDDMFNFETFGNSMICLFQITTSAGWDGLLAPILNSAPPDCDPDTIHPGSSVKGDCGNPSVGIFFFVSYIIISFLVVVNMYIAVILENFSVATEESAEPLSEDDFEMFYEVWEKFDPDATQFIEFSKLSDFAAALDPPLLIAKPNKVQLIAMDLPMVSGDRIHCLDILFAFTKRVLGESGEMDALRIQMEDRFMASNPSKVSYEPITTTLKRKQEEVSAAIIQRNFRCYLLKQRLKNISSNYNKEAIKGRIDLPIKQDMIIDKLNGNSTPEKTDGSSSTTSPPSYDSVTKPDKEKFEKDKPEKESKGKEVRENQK

Compound	IC50 (hNav1.7)	IC50 (hNav1.3)	IC50 (hNav1.5)	IC50 (hNav1.4)	Nav1.4/Nav1.7 (hNav1.4)
CC[C@H](C)[C@H](NC(=O)[C@@H](NC(=O)[C@H](CCCCN)NC(=O)[C@H](CCCNC(=N)N)NC(=O)[C@@H]1CSSC[C@@H]2NC(=O)[C@H](C)NC(=O)[C@H](CCCNC(=N)N)NC(=O)[C@H](CCCCN)NC(=O)[C@H](CO)NC(=O)[C@H](CC(=O)O)NC(=O)[C@@H]3CSSC[C@H](NC(=O)[C@H](CO)NC(=O)[C@H](CC(C)C)NC(=O)CNC(=O)[C@H](CCC(=O)O)NC(=O)[C@H](CSSC[C@H](NC(=O)[C@@H](N)Cc4ccc(O)cc4)C(=O)N[C@@H](CCC(N)=O)C(=O)N[C@@H](CCCCN)C(=O)N[C@@H](Cc4c[nH]c5ccccc45)C(=O)N[C@@H](CCSC)C(=O)N[C@@H](Cc4c[nH]c5ccccc45)C(=O)N[C@@H]([C@@H](C)O)C(=O)N3)NC2=O)C(=O)N[C@@H](CCCCN)C(=O)N[C@@H](CC(C)C)C(=O)N[C@@H](Cc2c[nH]c3ccccc23)C(=O)N1)[C@@H](C)CC)C(N)=O [compound 125]	0.03 µM	0.29 µM	9.2 µM	0.4 µM	17
CC[C@H](C)[C@H](NC(=O)[C@H](Cc1cn(CCCOCCOCCOCCOCCOCCOCCOCCOCCOCCOCCN)nn1)NC(=O)[C@H](CCCCN)NC(=O)[C@H](CCCNC(=N)N)NC(=O)[C@@H]1CSSC[C@@H]2NC(=O)[C@H](C)NC(=O)[C@H](CCCNC(=N)N)NC(=O)[C@H](CCCCN)NC(=O)[C@H](CO)NC(=O)[C@H](CC(=O)O)NC(=O)[C@@H]3CSSC[C@H](NC(=O)[C@H](CCC(=O)O)NC(=O)[C@H](CC(C)C)NC(=O)CNC(=O)[C@H](CCC(=O)O)NC(=O)[C@H](CSSC[C@H](NC(=O)[C@@H](N)Cc4ccc(O)cc4)C(=O)N[C@@H](CCC(N)=O)C(=O)N[C@@H](CCCCN)C(=O)N[C@@H](Cc4c[nH]c5ccccc45)C(=O)N[C@@H](CCSC)C(=O)N[C@@H](Cc4c[nH]c5ccccc45)C(=O)N[C@@H]([C@@H](C)O)C(=O)N3)NC2=O)C(=O)N[C@@H](CCCCN)C(=O)N[C@@H](CC(C)C)C(=O)N[C@@H](Cc2c[nH]c3ccccc23)C(=O)N1)C(N)=O [compound 187]	1.77 µM	> 5 µM	15.4 µM	> 5 µM	3
CC[C@H](C)[C@H](NC(=O)[C@H](Cc1ccc(O)cc1)NC(=O)[C@H](CCCCN)NC(=O)[C@H](CCCNC(=N)N)NC(=O)[C@@H]1CSSC[C@@H]2NC(=O)[C@H](C)NC(=O)[C@H](CCCNC(=N)N)NC(=O)[C@H](CCCCN)NC(=O)[C@H](CO)NC(=O)[C@H](CC(=O)O)NC(=O)[C@@H]3CSSC[C@H](NC(=O)[C@H](CCC(=O)O)NC(=O)[C@H](CC(C)C)NC(=O)CNC(=O)[C@H](CCC(=O)O)NC(=O)[C@H](CSSC[C@H](NC(=O)[C@@H](N)Cc4ccc(O)cc4)C(=O)N[C@@H](CCC(N)=O)C(=O)N[C@@H](CCCCN)C(=O)N[C@@H](C(C)C)C(=O)N[C@@H](CCSC)C(=O)N[C@@H](Cc4c[nH]c5ccccc45)C(=O)N[C@@H]([C@@H](C)O)C(=O)N3)NC2=O)C(=O)N[C@@H](CCCCN)C(=O)N[C@@H](CC(C)C)C(=O)N[C@@H](Cc2c[nH]c3ccccc23)C(=O)N1)C(N)=O [compound 195]	3.8 µM	> 5 µM	> 5 µM	> 5 µM	–
CC[C@H](C)[C@H](NC(=O)[C@@H](NC(=O)[C@H](CCCCN)NC(=O)[C@H](CCCNC(=N)N)NC(=O)[C@@H]1CSSC[C@@H]2NC(=O)[C@H](C)NC(=O)[C@H](CCCNC(=N)N)NC(=O)[C@H](CCCCN)NC(=O)[C@H](CO)NC(=O)[C@H](CC(=O)O)NC(=O)[C@@H]3CSSC[C@H](NC(=O)[C@H](CCC(=O)O)NC(=O)[C@H](CC(C)C)NC(=O)CNC(=O)[C@H](CCC(=O)O)NC(=O)[C@H](CSSC[C@H](NC(=O)[C@@H](N)Cc4cn(CCCOCCOCCOCCOCCOCCOCCOCCOCCOCCOCCN)nn4)C(=O)N[C@@H](CCC(N)=O)C(=O)N[C@@H](CCCCN)C(=O)N[C@@H](Cc4c[nH]c5ccccc45)C(=O)N[C@@H](CCSC)C(=O)N[C@@H](Cc4c[nH]c5ccccc45)C(=O)N[C@@H]([C@@H](C)O)C(=O)N3)NC2=O)C(=O)N[C@@H](CCCCN)C(=O)N[C@@H](CC(C)C)C(=O)N[C@@H](Cc2c[nH]c3ccccc23)C(=O)N1)[C@@H](C)CC)C(N)=O [compound 165]	0.18 µM	> 5 µM	15.1 µM	> 5 µM	28
CC[C@H](C)[C@H](NC(=O)[C@H](Cc1ccc(O)cc1)NC(=O)[C@H](CCCCN)NC(=O)[C@H](CCCNC(=N)N)NC(=O)[C@@H]1CSSC[C@@H]2NC(=O)[C@H](C)NC(=O)[C@H](CCCNC(=N)N)NC(=O)[C@H](CCCCN)NC(=O)[C@H](CO)NC(=O)[C@H](CC(=O)O)NC(=O)[C@@H]3CSSC[C@H](NC(=O)[C@H](CCC(=O)O)NC(=O)[C@H](CC(C)C)NC(=O)CNC(=O)[C@H](CCC(=O)O)NC(=O)[C@H](CSSC[C@H](NC(=O)[C@@H](N)Cc4ccc(O)cc4)C(=O)N[C@@H](CCC(N)=O)C(=O)N[C@@H](CCCCN)C(=O)N[C@@H](Cc4c[nH]c5ccccc45)C(=O)N[C@@H](CCSC)C(=O)N[C@@H](CCCCN)C(=O)N[C@@H]([C@@H](C)O)C(=O)N3)NC2=O)C(=O)N[C@@H](CCCCN)C(=O)N[C@@H](CC(C)C)C(=O)N[C@@H](Cc2c[nH]c3ccccc23)C(=O)N1)C(N)=O [compound 214]	2.7 µM	> 7 µM	> 7 µM	> 7 µM	–
CC[C@H](C)[C@H](NC(=O)[C@@H](NC(=O)[C@H](CCCCN)NC(=O)[C@H](CCCNC(=N)N)NC(=O)[C@@H]1CSSC[C@@H]2NC(=O)[C@H](C)NC(=O)[C@H](CCCNC(=N)N)NC(=O)[C@H](CCCCN)NC(=O)[C@H](CO)NC(=O)[C@H](CC(=O)O)NC(=O)[C@@H]3CSSC[C@H](NC(=O)[C@H](CC(C)C)NC(=O)[C@H](CC(C)C)NC(=O)CNC(=O)[C@H](CCC(=O)O)NC(=O)[C@H](CSSC[C@H](NC(=O)[C@@H](N)Cc4ccc(O)cc4)C(=O)N[C@@H](CCC(N)=O)C(=O)N[C@@H](CCCCN)C(=O)N[C@@H](Cc4c[nH]c5ccccc45)C(=O)N[C@@H](CCSC)C(=O)N[C@@H](Cc4c[nH]c5ccccc45)C(=O)N[C@@H]([C@@H](C)O)C(=O)N3)NC2=O)C(=O)N[C@@H](CCCCN)C(=O)N[C@@H](CC(C)C)C(=O)N[C@@H](Cc2c[nH]c3ccccc23)C(=O)N1)[C@@H](C)CC)C(N)=O [compound 119]	0.07 µM	2.51 µM	8.3 µM	1 µM	14
CC[C@H](C)[C@H](NC(=O)[C@H](Cc1ccc(O)cc1)NC(=O)[C@H](CCCCN)NC(=O)[C@H](CCCNC(=N)N)NC(=O)[C@@H]1CSSC[C@@H]2NC(=O)[C@H](C)NC(=O)[C@H](CCCNC(=N)N)NC(=O)[C@H](CCCCN)NC(=O)[C@H](CO)NC(=O)[C@H](CC(=O)O)NC(=O)[C@@H]3CSSC[C@H](NC(=O)[C@H](CCC(=O)O)NC(=O)[C@H](CC(C)C)NC(=O)CNC(=O)[C@H](CCC(=O)O)NC(=O)[C@H](CSSC[C@H](NC(=O)[C@@H](N)Cc4ccc(O)cc4)C(=O)N[C@@H](CCC(N)=O)C(=O)N[C@@H](CCCCN)C(=O)N[C@@H](Cc4c[nH]c5ccccc45)C(=O)N[C@@H](CCSC)C(=O)N[C@@H](CO)C(=O)N[C@@H]([C@@H](C)O)C(=O)N3)NC2=O)C(=O)N[C@@H](CCCCN)C(=O)N[C@@H](CC(C)C)C(=O)N[C@@H](Cc2c[nH]c3ccccc23)C(=O)N1)C(N)=O [compound 216]	4.7 µM and 6.6 µM	> 7 µM	> 7 µM and 5.4 µM	> 7 µM	–
